Laboratory results: publication PMC11165695 (Nature methods, 2024)

Assays:
SJSA-1 cells = experiment: Apoptosis induction / caspase-3/7 activation; format: cell-based; conditions: Supplementary Figure 14
[1] = tested on: alkaline phosphatase (ALP); conditions: pNPP 200 μM, ALP 0.5 U/mL, PBS, room temperature, UV absorbance 405 nm

Question: With `COc1cccc2c1C(=O)c1c(O)c3c(c(O)c1C2=O)C[C@@](O)(C(=O)CO)C[C@@H]3O[C@H]1C[C@H](N)[C@H](O)[C@H](C)O1` [Doxorubicin] as the molecule, how does the apoptosis induction (SJSA-1 cells) read?
Answer: efficiently induces apoptosis

Question: For `O=[N+]([O-])c1ccc(OP(=O)(O)O)cc1` [P-nitrophenyl phosphate], which “initial speed (v0), standard substrate” value [1] is on record?
Answer: 0.53 nmol/min
